One test has as its system MDA-MB-231. Briefly: Antiproliferative activity in MDA-MB-231. In kind it is cell-based. The note with it: Homo sapiens. The source says: (§1) The inhibitory and antiproliferative activities of selected compounds disclosed herein against cyclin-dependent kinase 12 were investigated.
For test [1], the target named is cyclin-dependent kinase 12 (Homo sapiens (Human), UniProt Q9NYV4). Put plainly: Inhibition of cyclin-dependent kinase 12. In kind it is biochemical. The settings on record: read-out: CDK12 inhibition, IC50.
Text: as §1

The term GI50 denotes the concentration at which growth is held to half of that of the control. A low value points to more potent growth inhibition. In general, IC50 refers to the midpoint of a concentration-inhibition curve.

Chain of cyclin-dependent kinase 12 (Q9NYV4 whole entry): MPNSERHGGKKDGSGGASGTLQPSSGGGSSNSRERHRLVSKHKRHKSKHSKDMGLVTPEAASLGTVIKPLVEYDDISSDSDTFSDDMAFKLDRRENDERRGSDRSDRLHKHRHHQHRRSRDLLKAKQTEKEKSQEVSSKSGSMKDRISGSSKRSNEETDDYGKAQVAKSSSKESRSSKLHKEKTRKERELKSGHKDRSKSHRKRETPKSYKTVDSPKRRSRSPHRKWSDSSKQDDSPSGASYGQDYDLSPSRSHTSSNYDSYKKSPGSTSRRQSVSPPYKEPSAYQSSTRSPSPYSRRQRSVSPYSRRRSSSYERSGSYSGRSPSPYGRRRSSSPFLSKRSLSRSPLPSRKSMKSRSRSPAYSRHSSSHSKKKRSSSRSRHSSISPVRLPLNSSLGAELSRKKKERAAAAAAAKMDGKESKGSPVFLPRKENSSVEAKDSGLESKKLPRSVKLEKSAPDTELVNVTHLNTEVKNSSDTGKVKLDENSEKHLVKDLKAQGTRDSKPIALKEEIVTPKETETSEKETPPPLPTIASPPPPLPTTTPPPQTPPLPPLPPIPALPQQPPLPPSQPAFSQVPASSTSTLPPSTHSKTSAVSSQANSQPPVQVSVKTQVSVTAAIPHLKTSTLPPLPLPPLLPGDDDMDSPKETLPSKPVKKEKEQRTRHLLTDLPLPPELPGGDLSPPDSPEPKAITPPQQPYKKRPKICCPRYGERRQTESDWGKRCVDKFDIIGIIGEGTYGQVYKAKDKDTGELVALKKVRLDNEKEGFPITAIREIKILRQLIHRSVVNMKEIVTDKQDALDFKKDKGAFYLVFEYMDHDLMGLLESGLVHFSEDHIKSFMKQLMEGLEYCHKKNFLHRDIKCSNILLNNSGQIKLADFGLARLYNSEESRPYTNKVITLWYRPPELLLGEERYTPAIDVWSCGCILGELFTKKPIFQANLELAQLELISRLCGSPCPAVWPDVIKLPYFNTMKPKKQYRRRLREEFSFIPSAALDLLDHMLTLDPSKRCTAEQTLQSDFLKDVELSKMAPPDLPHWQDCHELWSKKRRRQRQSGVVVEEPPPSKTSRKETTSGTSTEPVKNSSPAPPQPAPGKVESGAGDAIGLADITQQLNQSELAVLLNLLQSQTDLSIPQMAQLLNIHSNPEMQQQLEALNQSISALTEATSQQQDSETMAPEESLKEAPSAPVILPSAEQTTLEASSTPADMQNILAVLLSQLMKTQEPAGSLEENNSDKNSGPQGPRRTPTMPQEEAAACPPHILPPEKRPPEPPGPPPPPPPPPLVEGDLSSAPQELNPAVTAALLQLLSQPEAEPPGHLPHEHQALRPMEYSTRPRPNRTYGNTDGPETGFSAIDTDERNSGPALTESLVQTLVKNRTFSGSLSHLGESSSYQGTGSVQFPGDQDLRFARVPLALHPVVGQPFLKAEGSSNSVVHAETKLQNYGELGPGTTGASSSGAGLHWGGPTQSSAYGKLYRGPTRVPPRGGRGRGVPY
Chain of cyclin-dependent kinase 12 (O75909 whole entry partner): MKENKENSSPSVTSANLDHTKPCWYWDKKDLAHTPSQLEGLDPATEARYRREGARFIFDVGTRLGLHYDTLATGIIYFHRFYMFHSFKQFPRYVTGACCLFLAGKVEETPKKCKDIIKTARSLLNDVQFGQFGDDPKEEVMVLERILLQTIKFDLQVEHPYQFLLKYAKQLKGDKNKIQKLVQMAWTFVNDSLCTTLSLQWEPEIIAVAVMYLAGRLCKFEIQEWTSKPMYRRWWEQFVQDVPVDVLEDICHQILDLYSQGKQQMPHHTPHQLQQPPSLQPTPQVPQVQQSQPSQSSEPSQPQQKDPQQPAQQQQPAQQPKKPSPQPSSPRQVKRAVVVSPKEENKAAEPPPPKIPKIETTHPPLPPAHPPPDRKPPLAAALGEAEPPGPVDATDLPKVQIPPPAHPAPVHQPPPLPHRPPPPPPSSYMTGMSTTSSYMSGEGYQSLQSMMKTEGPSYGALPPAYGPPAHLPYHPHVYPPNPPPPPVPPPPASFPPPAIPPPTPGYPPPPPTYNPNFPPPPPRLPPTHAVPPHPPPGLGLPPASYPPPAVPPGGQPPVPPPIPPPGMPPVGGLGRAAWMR

`Fc1cccc2nc(CNc3nc(N4CCOCC4)nc4c(-c5cnn(C(F)F)c5)cnn34)[nH]c12` [Compound 8, 8-(1-(difluoromethyl)-1H-pyrazol-4-yl)-N-((7-fluoro-1H-benzo[d]imidazol-2-yl)methyl)-2-morpholinopyrazolo[1,5-a][1,3,5]triazin-4-amine] showed a GI50 in the test with MDA-MB-231 of 44 nM. Besides, in test [1], the IC50 was determined as 44 nM.

For `FC(F)n1cc(-c2cnn3c(NCc4nc5cccc(Cl)c5[nH]4)nc(N4CCOCC4)nc23)cn1` [Compound 6, N-((7-chloro-1H-benzo[d]imidazol-2-yl)methyl)-8-(1-(difluoromethyl)-1H-pyrazol-4-yl)-2-morpholinopyrazolo[1,5-a][1,3,5]triazin-4-amine], it took 62 nM to inhibit growth in the test with MDA-MB-231 by half (GI50). Also, the concentration for half-maximal inhibition (IC50) in test [1] stood at 65 nM.

With `OC[C@@H]1COCCN1c1nc(NCc2nc3cc(Cl)c(Cl)cc3[nH]2)n2ncc(-c3cnn(C(F)F)c3)c2n1` [Compound 4, (R)-(4-(4-(((5,6-dichloro-1H-benzo[d]imidazol-2-yl)methyl)amino)-8-(1-(difluoromethyl)-1H-pyrazol-4-yl)pyrazolo[1,5-a][1,3,5]triazin-2-yl)morpholin-3-yl)methanol], halving of growth in the test on MDA-MB-231 (GI50) required 384 nM. In test [1], the IC50 was 4050 nM.

In the test on MDA-MB-231, `Cn1cc(-c2cnn3c(NCc4nc5cc(F)c(F)cc5[nH]4)nc(N4CCOCC4)nc23)cn1` [Compound 14, N-((5,6-difluoro-1H-benzo[d]imidazol-2-yl)methyl)-8-(1-methyl-1H-pyrazol-4-yl)-2-morpholinopyrazolo[1,5-a][1,3,5]triazin-4-amine] registered a GI50 of 1240 nM. For the same compound, the IC50 in test [1] was found to be 1350 nM.

As for `FC(F)n1cc(-c2cnn3c(NCc4nc5cccc(Cl)c5[nH]4)nc(N4CCC(F)(F)CC4)nc23)cn1` [Compound 7, N-((7-chloro-1H-benzo[d]imidazol-2-yl)methyl)-8-(1-(difluoromethyl)-1H-pyrazol-4-yl)-2-(4,4-difluoropiperidin-1-yl)pyrazolo[1,5-a][1,3,5]triazin-4-amine], in the test with MDA-MB-231, growth was halved (GI50) at 980 nM. In addition, the IC50 in test [1] stood at 552 nM.

`FC(F)n1cc(-c2cnn3c(NCc4nc5cc(Cl)c(Cl)cc5[nH]4)nc(N4CCOCC4)nc23)cn1` [Compound 2, N-((5,6-dichloro-1H-benzo[d]imidazol-2-yl)methyl)-8-(1-(difluoromethyl)-1H-pyrazol-4-yl)-2-morpholinopyrazolo[1,5-a][1,3,5]triazin-4-amine] gave a GI50 in the test with MDA-MB-231 of 150 nM. Also, in test [1], the IC50 came out at 262 nM.

`Cn1cc(-c2cnn3c(NCc4nc5cc(Cl)c(Cl)cc5[nH]4)nc(N4CCOCC4)nc23)cn1` [Compound 1, N-((5,6-dichloro-1H-benzo[d]imidazol-2-yl)methyl)-8-(1-methyl-1H-pyrazol-4-yl)-2-morpholinopyrazolo[1,5-a][1,3,5]triazin-4-amine] had a GI50 in the test with MDA-MB-231 of 419 nM. The IC50 in test [1] worked out at 554 nM.

Compound `FC(F)n1cc(-c2cnn3c(NCc4nc5cc(Cl)c(Cl)cc5[nH]4)nc(N4CCC(F)(F)CC4)nc23)cn1` [Compound 3, N-((5,6-dichloro-1H-benzo[d]imidazol-2-yl)methyl)-8-(1-(difluoromethyl)-1H-pyrazol-4-yl)-2-(4,4-difluoropiperidin-1-yl)pyrazolo[1,5-a][1,3,5]triazin-4-amine] gave a GI50 with MDA-MB-231 of 710 nM. Moreover, the IC50 in test [1] was greater than 10000 nM.

`Cn1cc(-c2cnn3c(NCc4nc5cccc(Cl)c5[nH]4)nc(N4CCOCC4)nc23)cn1` [Compound 12, N-((7-chloro-1H-benzo[d]imidazol-2-yl)methyl)-8-(1-methyl-1H-pyrazol-4-yl)-2-morpholinopyrazolo[1,5-a][1,3,5]triazin-4-amine] had a GI50 in the test on MDA-MB-231 of 1110 nM. Also, the IC50 in test [1] turned out to be 289 nM.

For the compound `Clc1cccc2nc(CNc3nc(N4CCOCC4)nc4c(-c5ccsc5)cnn34)[nH]c12` [Compound 9, N-((7-chloro-1H-benzo[d]imidazol-2-yl)methyl)-2-morpholino-8-(thiophen-3-yl)pyrazolo[1,5-a][1,3,5]triazin-4-amine], in the test on MDA-MB-231, the 50% growth inhibitory concentration (GI50) came out at 227 nM. The IC50 in test [1] was determined as 377 nM.

Take `Clc1cc2nc(CNc3nc(N4CCOCC4)nc4c(-c5ccsc5)cnn34)[nH]c2cc1Cl` [Compound 5, N-((5,6-dichloro-1H-benzo[d]imidazol-2-yl)methyl)-2-morpholino-8-(thiophen-3-yl)pyrazolo[1,5-a][1,3,5]triazin-4-amine]: in the test on MDA-MB-231, growth was halved (GI50) at 764 nM. In test [1], the IC50 stood at 2420 nM.

On to `Fc1cc2nc(CNc3nc(N4CCOCC4)nc4c(-c5ccsc5)cnn34)[nH]c2cc1F` [Compound 11, N-((5,6-difluoro-1H-benzo[d]imidazol-2-yl)methyl)-2-morpholino-8-(thiophen-3-yl)pyrazolo[1,5-a][1,3,5]triazin-4-amine], for which, in the test with MDA-MB-231, halving of growth (GI50) required 61 nM. In addition, the IC50 in test [1] was found to be 196 nM.

`CN1CCN(c2nc(NCc3nc4cccc(Cl)c4[nH]3)n3ncc(-c4ccsc4)c3n2)CC1` [Compound 10, N-((7-chloro-1H-benzo[d]imidazol-2-yl)methyl)-2-(4-methylpiperazin-1-yl)-8-(thiophen-3-yl)pyrazolo[1,5-a][1,3,5]triazin-4-amine]: the 50% growth inhibitory concentration (GI50) with MDA-MB-231 worked out at 835 nM. Also, in test [1], the IC50 came out at 1560 nM.

As to `Cn1cc(-c2cnn3c(NCc4nc5cccc(Cl)c5[nH]4)nc(N4CCC(F)(F)CC4)nc23)cn1` [Compound 13, N-((7-chloro-1H-benzo[d]imidazol-2-yl)methyl)-2-(4,4-difluoropiperidin-1-yl)-8-(1-methyl-1H-pyrazol-4-yl)pyrazolo[1,5-a][1,3,5]triazin-4-amine], the GI50 in the test with MDA-MB-231 was determined as 3770 nM. Further, the IC50 in test [1] came to 1280 nM.
